Data published in patent publication US20240216410A1, “METHODS AND COMPOSITIONS FOR TREATING CANCER THERAPY-INDUCED NEUTROPENIC FEVER AND/OR GVHD” (BOARD OF REGENTS, THE UNIVERSITY OF TEXAS SYSTEM, priority 2021, published 2024).
“Also recorded” adds a separate entry of the source.

Legend:
[1] = test system: Clostridium disporicum (MDA-JAX CD001); assay: MIC of meropenem by MIC test strips; assay type: cell-based; conditions: mouse-derived
Protocol: (§1) The minimum inhibitory concentration (MIC) of meropenem against murine BT was quantified using MIC test strips (Table 4).
(§2) Culturing of bacteria. Mouse-derived BT (MDA-JAX BT001), Enterococcus faecalis (MDA-JAX EF001) and Clostridium disporicum (MDA-JAX CD001), Clostridium saudiense (MDA-JAX CS001), and Lachnospiraceae unclassified (MDA-JAX LS001) were isolated and cultured from mouse stool samples suspended in 1 ml of chilled 20% anaerobic glycerol in a Whitley anaerobic chamber (10% H2, 5% CO2 and 85% N2). Human-derived BT (ATCC 29148) was purchased from ATCC. Bacterial number was quantified using a Nexcelom Cellometer cell counter with SYTO™ BC dye and propidium iodide. For measuring MICs against meropenem, bacteria were cultured on BYE plates including 5% sterilized rumen fluid (Fisher Scientific) with MIC test strips (LIOFILCHEM™ MTS™ Meropenem [MRP] 0.016-256 μg/mL, THERMO FISHER […]™)). Bacterial growth experiments were in liquid media were performed in a novel bacterial media, BYEM10, composed of a hybrid of BHI and M10 supplemented with yeast extract (Table 5).

[2] = test system: Bacteroides thetaiotaomicron (ATCC 29148); assay: MIC of meropenem by MIC test strips; assay type: cell-based; conditions: ATCC29148, human-derived BT
Protocol: as §1, §2

[3] = test system: Clostridium saudiense (MDA-JAX CS001); assay: MIC of meropenem by MIC test strips; assay type: cell-based; conditions: mouse-derived
Protocol: as §1, §2

[4] = test system: Enterococcus faecalis (MDA-JAX EF001); assay: MIC of meropenem by MIC test strips; assay type: cell-based; conditions: mouse-derived
Protocol: as §1, §2

[5] = test system: Lachnospiraceae unclassified (MDA-JAX LS001); assay: MIC of meropenem by MIC test strips; assay type: cell-based; conditions: mouse-derived
Protocol: as §1, §2

[6] = test system: Bacteroides thetaiotaomicron (MDA-JAX BT001); assay: MIC of meropenem by MIC test strips; assay type: cell-based; conditions: mouse-derived BT
Protocol: as §1, §2

intestinal microbiota = assay: Murine GVHD model: fecal microbiome composition (16S rRNA sequencing) and bacterial density (qPCR); assay type: in vivo, mice
Protocol: Effects of meropenem treatment on the composition of the intestinal microbiota of allo-HSCT mice were also examined (FIG. 15F).
Sequencing of 16S rRNA gene amplicons. Fecal samples from patients and mice were weighed before DNA isolation. In brief, genomic DNA was isolated using the QIAAMP® DNA mini kit (51306, QIAGEN®) according to the manufacturer's protocol that was modified to include an intensive bead-beating lysis step. The V4 region of 16S rRNA gene was amplified by PCR from 100 ng of each of extracted and purified genomic DNA using 515 forward and 806 reverse primer pairs (59). The quality and quantity of the barcoded amplicons were assessed on an Agilent 4200 TapeStation system (Agilent) and QUBIT™ Fluorometer (THERMO FISHER […]™), and libraries were prepared after pooling at equimolar ratios. The final libraries were purified using […]® gel extraction kit (28706X4, QIAGEN®) and sequenced with a 2×250 base pair paired-end protocol on the […]® MISEQ™ platform.
Microbiome data analysis. Sequencing data from paired-end reads were de-multiplexed using QIIME 2 (60). Merging of paired-end reads, dereplicating, and length filtering was performed using VSEARCH 2.17.1 (61). Following de-noising and chimera calling using the unoise3 command (62), unique sequences were taxonomically classified with mothur (63) using the Silva database (64) version 138. Weighted UniFrac distances (65) were determined using QIIME 2, visualized using principal coordinate analysis, and evaluated for statistical significance using permutational multivariate analysis of variance (PERMANOVA) testing. For differential abundance analysis, abundances of sequences belonging to taxonomical groups were included for analysis using the Mann-Whitney U test and adjusted for multiple comparisons using the method of Benjamini and Hochberg. Paired samples were analyzed using the Wilcoxon signed rank test with adjustment for multiple comparisons.
Quantification of fecal bacterial density. Genomic DNA was isolated from stool as described above. qPCR was performed as previously described (66). In brief, 16S rRNA gene sequences were amplified from total fecal DNA using the primers 926F (5′-[…]-3′, where K is a G or a T; SEQ ID NO:2) and 1062R (5′-[…]-3′, where R is an A or a G; SEQ ID NO:3). Real-time PCR were carried out in 96-well optical plates on QUANTSTUDIO™ Flex 6 RT PCR (APPLIED BIOSYSTEMS™) and KAPA SYBR® FAST Master Mix (Roche). The PCR conditions included one initial denaturing step of 10 min at 95° C. and 40 cycles of 95° C. for 20 sec and 60 °C for 1 min. Melting-curve analysis was performed after amplification. To determined bacterial density, a plasmid with a 16S rRNA gene of a murine Blautia isolate was generated in the pCR4 backbone and used as a standard.

C[C@@H](O)[C@H]1C(=O)N2C(C(=O)O)=C(S[C@@H]3CN[C@H](C(=O)N(C)C)C3)[C@H](C)[C@H]12 [meropenem]
MIC [1]: 0.094 µg/mL | MIC [2]: 6 µg/mL | MIC [3]: 0.38 µg/mL | MIC [4]: 12 µg/mL | MIC [5]: 0.38 µg/mL | MIC [6]: 4 µg/mL | abundance of murine BT (intestinal microbiota; allo-HSCT mice, days 0, 7, 14, 21): suppressed by meropenem-supplemented drinking water but quickly expanded after cessation of meropenem therapy; also recorded: higher abundances of BT | abundance of Clostridia (intestinal microbiota; allogeneic mice, days 0, 7, 14, 21): significantly decreased; also recorded: depleted | fecal bacterial density (intestinal microbiota; day 14 after allo-HSCT, during meropenem treatment): significantly decreased bacterial density | fecal bacterial density (intestinal microbiota; day 21, 6 days after stopping meropenem): recovered to a level similar to that of untreated syngeneic and allogeneic mice | alpha diversity (inverse Simpson index) (intestinal microbiota; fecal samples day 21): significantly reduced | bacterial genera depleted (intestinal microbiota; fecal samples day 21): many genera were depleted, including Blautia, Lachnoclostridium, and other members of Lachnospiraceae | bacterial genera with increased abundance (intestinal microbiota; fecal samples day 21): significantly higher abundances of bacteria from several genera, including most substantially Bacteroides, as well as Enterococcus, Erysipelatoclostridium, Bifidobacterium and Akkermansia
